{"source": "patent US20160295860A1", "about": "“A NOVEL COMPOSITION AND METHOD OF USE TO CONTROL PATHOGENS AND PREVENT DISEASES IN SEEDS” (AGRI-NÉO INC., priority 2013, published 2016)", "key": {"[1]": {"tested_on": "Total count Aerobic bacteria", "test": "Total aerobic count on seeds, grains and spices sprayed with sanitizing solutions", "type": "cell-based", "description": "(§1) Seeds were mechanically cleaned and spread in stainless steel containers. Each 100 grams seeds were sprayed with 4 ml total solutions descried above via conventional trigger vaporizer. This solution is equivalent to 40 L disinfecting solution total sprayed on 1-ton seeds. Seeds, grains and spices were selected to represent all families and types of seeds, grains and spices. Another criteria was to select seeds and grains contaminated with a high count of total aerobic bacteria, yeast, mold, E. coli, Salmonella sp. and other pathogenic microorganisms.\n(§2) Seeds, grains and spices treated were: • Whole dried pea, • Split pea dried, • Pea fiber, • Vanilla, • Chia, • Sprouted flax and chia, • Flax, • Hemp, and • Black pepper seeds"}, "[2]": {"tested_on": "Y&M (yeast, mold)", "test": "Yeast and mold (Y&M) count on seeds, grains and spices sprayed with sanitizing solutions", "type": "cell-based", "settings": "for Y&M, n1: replicate n1; for Y&M, n2: replicate n2", "description": "as §1, §2"}, "[3]": {"settings": "Whole dried pea, 40 L per 1 ton"}, "[4]": {"settings": "Whole split pea, 40 L per 1 ton"}}, "data": [{"smiles": "CCO", "note": "[2- Alcohol - ethanol, ethanol]", "values": [{"measurement": "Conclusion in words on bactericidal efficacy", "setting": "[1]; Black pepper, 40 L per 1 ton", "value": "not a strong bactericidal agent"}, {"measurement": "Conclusion in words on bactericidal efficacy", "setting": "[1]; Hemp, 40 L per 1 ton", "value": "not a strong bactericidal agent"}, {"measurement": "Conclusion in words on bactericidal efficacy", "setting": "[1]; Pea fiber, 40 L per 1 ton", "value": "not a strong bactericidal agent"}, {"measurement": "Conclusion in words on bactericidal efficacy", "setting": "[1]; Sprouted flax and chia", "value": "bactericidal agent but not very strong"}, {"measurement": "Conclusion in words on bactericidal efficacy", "setting": "[1]; Vanilla, 40 L per 1 ton", "value": "not a strong bactericidal agent"}, {"measurement": "Conclusion in words on bactericidal efficacy", "setting": "[1]; [3]", "value": "not a strong bactericidal agent"}, {"measurement": "Conclusion in words on bactericidal efficacy", "setting": "[1]; [4]", "value": "not a strong bactericidal agent"}, {"measurement": "Y&M, Av", "setting": "[2]; Pea fiber", "value": "Y&M not detected"}, {"measurement": "Y&M, n1", "setting": "[2]; Pea fiber", "value": "n1, n2 not detected"}, {"measurement": "Y&M, n2", "setting": "[2]; Pea fiber", "value": "n1, n2 not detected"}, {"measurement": "Y&M, Av", "setting": "[2]; Whole dried pea", "value": "Y&M not detected"}, {"measurement": "Y&M, n1", "setting": "[2]; Whole dried pea", "value": "n1, n2 not detected"}, {"measurement": "Y&M, n2", "setting": "[2]; Whole dried pea", "value": "n1, n2 not detected"}, {"measurement": "Y&M, Av", "setting": "[2]; Whole split pea", "value": "Y&M not detected"}, {"measurement": "Y&M, n1", "setting": "[2]; Whole split pea", "value": "n1, n2 not detected"}, {"measurement": "Y&M, n2", "setting": "[2]; Whole split pea", "value": "n1, n2 not detected"}]}, {"smiles": "CC(=O)OO", "note": "[Peracetic acid]", "values": [{"measurement": "Conclusion in words on bactericidal efficacy", "setting": "[1]; Black pepper, 40 L per 1 ton", "value": "strong bactericidal agent"}, {"measurement": "Conclusion in words on bactericidal efficacy", "setting": "[1]; Hemp, 40 L per 1 ton", "value": "strong bactericidal agent"}, {"measurement": "Conclusion in words on bactericidal efficacy", "setting": "[1]; Pea fiber, 40 L per 1 ton", "value": "strong bactericidal agent"}, {"measurement": "Conclusion in words on bactericidal efficacy", "setting": "[1]; Vanilla, 40 L per 1 ton", "value": "strong bactericidal agent"}, {"measurement": "Conclusion in words on bactericidal efficacy", "setting": "[1]; [3]", "value": "strong bactericidal agent"}, {"measurement": "Conclusion in words on bactericidal efficacy", "setting": "[1]; [4]", "value": "strong bactericidal agent"}]}]}
